Assay results: patent publication US20110294874A1, “DIAGNOSIS AND THERAPY OF ORGAN DYSFUNCTION USING SPHINGANINE-1-PHOSPHATE” (The Trustees of Columbia University in the City of New York, priority 2008, published 2011)
Where “and” joins values, the source holds several entries; their conditions need not be identical. Equal values may be shown once.

Key:
[1] = tested on: C57BL/6 mice subjected to liver IR; assay: Survival of mice after liver IR; assay type: in vivo, mouse; settings: 24 hours post liver IR
Source text: Without Sg1P administration, 20% of mice subjected to liver IR stayed alive after 1 week. With Sg1P treatment, 50% of mice subjected to liver IR that received Sg1P remained alive after the same time period.

[2] = tested on: C57BL/6 mice subjected to liver IR; assay: Evans blue dye extravasation (vascular permeability) in liver and kidney after liver IR; assay type: in vivo, mouse; settings: vs vehicle-treated group
Procedure: After observing marked endothelial apoptosis following liver IR, liver and kidney vascular permeability after liver IR was measured with Evans blue dye (EBD) injection. EBD binds to plasma proteins and its appearance in extravascular tissues reflects an increase in vascular permeability, which is indicative of organ injury. Liver IR increased the EBD content (in μg EBD/g dry weight) in the liver (377±48, N=6) compared to sham-operated mice (48±7, N=4, p<0.001).

ERK/MAPK, Akt, HSP27 = assay: Immunoblotting/RT-PCR of liver and kidney of mice injected with Sg1P; assay type: in vivo, mouse; settings: i.v. injection
Procedure: Mice were injected with sphinganine 1-phophate intravenously and their kidney and liver tissues were extracted at 15 minutes after injection (for immunoblotting of phosphorylated proteins) or at 5 hours after injection (for RT-PCR). […] HSP27 is a known F-actin stabilizing and anti-apoptotic protein.

[3] = tested on: SK1 KO mice subjected to liver IR; assay: Liver IR in SK1 KO mice: plasma ALT and creatinine; assay type: in vivo, mouse; settings: SK1KO, hepatic IR 24 h
Procedure: The effects of administering Sg1P (0.1 mg/kg i.v. and 0.2 mg/kg s.c.) on liver and renal injury were also determined in the KO mice and are also shown in Tables 9 and 10 below.

[4] = tested on: human epithelial HK-2 cell line; assay: Kinase phosphorylation and HSP27 expression in HK-2 cells; assay type: cell-based; settings: HK-2 (data not shown)
Source text: As shown above, Sg1P protects human endothelial cells, and does so through the same mechanism as shown in mouse tissue.

[5] = tested on: C57BL/6 mice subjected to liver IR; assay: Neutrophil infiltration into liver and kidney after liver IR; assay type: in vivo, mouse
Procedure: Mice were anesthetized with intraperitoneal pentobarbital (50 mg/kg or to effect). Mice were placed under a heating lamp and on a 37° C. heating pad. After a midline laparotomy and intraperitoneal application of 20 U heparin, left lateral and median lobes of the liver were subjected to ischemia with a microaneurysm clip occluding the hepatic triad above the bifurcation. This method of partial hepatic ischemia results in a segmental (˜70%) hepatic ischemia but spares the right lobe of the liver and prevents mesenteric venous congestion by allowing portal decompression throughout the right and caudate lobes of the liver. The liver was then repositioned in the peritoneal cavity in its original location for 60 minutes. The liver was kept moist with gauze soaked in 0.9% normal saline. The body temperature was monitored by an infrared temperature sensor (Linear Laboratories, Fremont, Calif.) every 10 min. and maintained at 37° C. using a heating lamp and a heating pad. After 60 minutes, the liver was reperfused and the wound closed. Sham-operated mice were subjected to laparotomy and identical liver manipulations without vascular occlusion. Two, 4 and 24 hr after reperfusion, plasma was collected for the measurement of alanine aminotransferase (ALT), a common indicator of liver damage, as well as creatinine (Cr) a common indicator of kidney damage. […]

[6] = tested on: C57BL/6 mice subjected to liver IR; assay: Murine model of liver ischemia reperfusion (hepatic IR): plasma ALT and creatinine; assay type: in vivo, mouse
[7] = 0.2 mg/kg i.v. 2 hours post-reperfusion
[8] = C57BL/6 mice, 60 min liver ischemia, 24 h reperfusion
[9] = single dose 0.1 mg/kg i.v. immediately before reperfusion
[10] = single dose 0.2 mg/kg s.c. two hours after reperfusion

In the case of `CCCCCCCCCCCCCCC[C@@H](O)[C@@H](N)COP(=O)(O)O` [Sg1P, sphinganine-1-phosphate], the Survival rate [1] is reported as roughly 90%, the “Increase in EBD content in liver and kidney” value [2] is reported as “significantly lower” and the “Phosphorylation of ERK/MAPK, Akt and HSP27 in liver and kidney” value (ERK/MAPK, Akt, HSP27; tissues 15 minutes after injection) is reported as “resulted in phosphorylation”. The “HSP27 mRNA expression in liver and kidney” value (ERK/MAPK, Akt, HSP27; tissues 5 hours after injection) was “induced”, the “Creatinine (mean)” value [3] was 0.709 mg/dL and the “ALT (mean)” value ([3]; 0.1 mg/kg i.v. and 0.2 mg/kg s.c.) was 9602.01 U/L. The “Phosphorylation of ERK/MAPK, Akt, HSP27 and HSP27 expression” value [4] was “failed to phosphorylate ERK/MAPK, Akt and HSP27 and also failed to induce HSP27 expression”, the “Neutrophils in necrotic areas of the liver” value [5] was 21.8±7.1 neutrophils/field and the “Neutrophils in the kidneys” value [5] was 0.8±0.3 neutrophils/field. The “ALT (liver protection)” value [6, 7] was 12063±593 U/L, the “Creatinine (kidney protection)” value [6, 7] was 0.93 ± 0.05 mg/dL and the “Serum ALT (mean)” value [6, 8] was 7474±557 U/L and 7474 U/L. For the same compound, the “Serum creatinine (mean)” value [6, 8] was 0.528 ± 0.07 mg/dL and 0.55 mg/dL, the “Most effective dose for treating both kidney and liver failure” value ([6]; dose response 0.01-1.0 mg/kg i.v. prior to reperfusion plus double dose s.c. 2 h after, serum creatinine and ALT) was 0.1 mg/kg i.v. prior to reperfusion followed by 0.2 mg/kg s.c. 2 hours after reperfusion and the “Reduction in the severity of liver injury (change in ALT levels)” value ([6]; non-nephrectomized mice) was 50%. For the same compound, the ALT [6, 9] was 7197±753 U/L, the Cr [6, 9] was 0.58 ± 0.06 mg/dL and the ALT [6, 10] was 14762±1732 U/L. For the same compound, the Cr [6, 10] was 0.98 ± 0.06 mg/dL.
